Measured values published in PMC4805082, “Seizure control by decanoic acid through direct AMPA receptor inhibition” (Brain, 2015).

Legend:
AMPA receptor GluA1 = target: T1, AMPA receptor GluA1 (Homo sapiens, UniProt P42261); experiment: Two-electrode voltage clamp, homomeric GluA1 AMPA receptor expressed in Xenopus oocytes; assay type: cell-based
T1 construct: expressed in transfected cells; host or cells: Xenopus laevis oocytes injected with cRNA
Experimental: The AMPA receptor (flip isoform) cDNAs inserted in a SP6 polymerase expression vector (pSP6T) were a generous gift from Prof. Ralf Schoepfer (NPP, UCL). RNA was transcribed in vitro from MluI linearized transcripts using the SP6 Promega RiboMAX® RNA synthesis kit according to manufacturer’s protocols except for the addition of 0.75 mM capping nucleotide m^7G(5’)ppp(5’)G (Promega) and 1.6 mM GTP. cRNA concentrations and integrity were estimated by the intensity of fluorescence bands in RNA denaturating gels. AMPA receptor cRNAs were mixed in a nominal 1:1 ratio and ∼5 ng was injected per oocyte.
Xenopus laevis oocytes were purchased from the European Xenopus Resource Centre, University of Portsmouth. Stage V to VI oocytes were mechanically dissected and then subjected to gentle shaking for ∼30–50 min at room temperature with modified Barth’s solution (in mM): 88 NaCl, 1 KCl, 2.4 NaHCO3, 0.82 MgCl2, 0.77 CaCl2, 15 Tris-Cl, adjusted to pH 7.4 with NaOH (Sigma-Aldrich), supplemented with 50 IU/ml penicillin and 50 µg/ml streptomycin (Invitrogen) and 50 µg/ml tetracycline (Sigma-Aldrich) and 1% collagenase (type 1A). Healthy oocytes were manually defolliculated and the injections of cRNA for homomeric subunits alone (GluA1), or heteromeric mixtures of two subunits together (GluA1/GluA2 or GluA2/GluA3) were made using an automated Drummond Nanoinject II injector. The oocytes were then incubated at 17°C in modified Barth’s solution for at least 48 h before use in electrophysiological recordings.
Experiments were performed at room temperature (∼21–23°C). An oocyte was placed in a recording chamber (0.3–0.5 ml volume) and perfused with ND96 solution (96 mM NaCl, 2 mM KCl, 1.8 mM CaCI2, 1 mM MgCl2, 5 mM HEPES, with pH adjusted to 7.5). Current and voltage electrodes were filled with 300 mM KCl and made from thin-walled borosilicate glass (GC150TF-7.5, Harvard Apparatus) using a PC-10 electrode puller (Narashige Instruments) and had resistances of 0.5–2 MΩ. Oocytes were voltage-clamped to a holding potential of −50 mV or −60 mV using a Turbo TEC-03 amplifier (npi electronics). […]

[1] = system: epileptiform activity (burst discharges) in hippocampal slices induced by pentylenetetrazol; experiment: In vitro seizure model, pentylenetetrazol-induced epileptiform activity in hippocampal slices; assay type: cell-based, rat; details: 1 mM; pentylenetetrazol 2 mM, K+ 6 mM
Experimental: Male Sprague-Dawley rats (postnatal Days 19–30) were sacrificed using an overdose of isoflurane or pentobarbitone (500 mg/kg). After decapitation the brain was rapidly removed, the hippocampus or entorhinal cortex-hippocampus slices was dissected from the brain and […] thick transverse slices were prepared on a VT1200S vibratome (Leica) or Vibratome (Vibratome® 1500 sectioning system, Intracell). The slicing was performed in ice-cold sucrose-based solution containing (in mM): 75 sucrose, 87 NaCl, 22 glucose, 2.5 KCl, 7 MgCl2, 1.25 NaH2PO4, 0.5 CaCl2 and 25 NaHCO3, pH 7.4, 315–330 mOsm equilibrated with 95% O2 plus 5% CO2. The slices were then stored in a continuously oxygenated humidified interface holding chamber containing oxygenated artificial CSF (in mM): 120 NaCl, 22 glucose, 2.5 KCl, 1.3 MgSO4, 1 NaH2PO4, 25 NaHCO3 and 2.5 CaCl2, pH 7.4 296 mOsm, where they recovered for at least 1 h before use.
During the experiment, slices were transferred from the interface chamber into a submerged recording chamber, designed to optimize wash-in and wash-out of drugs, and continuously perfused using gravity feed at 3–6 ml/min with prewarmed (36°C) oxygenated artificial CSF (95% O2, 5% CO2). Field potentials were recorded with a glass microelectrode (1–2 MΩ) filled with artificial CSF solution placed in stratum radiatum of CA1 and were filtered at 1 kHz and digitized at 2 kHz (using an npi EXT-02F extracellular amplifier recorded with WinEDR software). In the pentylenetetrazol model, the epileptiform (paroxysmal) activity was induced by application of pentylenetetrazol (2 mM) to the perfusate and [K^+] was increased (to 6 mM); in low-Mg^2+ model, the epileptiform activity was elicited by using Mg^2+-free artificial CSF. Once the frequency of the paroxysmal activity was stable for at least 10 min, compounds were applied to the perfusate for the following 40 min, and washed out for a remaining 20 min. The anticonvulsant effects were evaluated by measuring the change in the frequency of the discharges at minute intervals. The discharge frequency was then averaged every 5 min during the experiment and normalized to baseline. The compounds applied in this study included: 1% dimethyl sulphoxide (DMSO), acetone (10 mM, Sigma), (±)-sodium 3-hydroxybutyrate (BHB) (10 mM, Sigma), and decanoic acid (1 mM, Alfa Aesar Pty). Acetone and decanoic acids were prepared as 1000× stocks in DMSO, and BHB was prepared as 100× stock. Stocks were dissolved in artificial CSF to achieve their final concentrations during experiments, and where applicable, experiments included constant levels of DMSO.

T1 sequence (P42261 19-906 isoform P42261-2 limits assumed): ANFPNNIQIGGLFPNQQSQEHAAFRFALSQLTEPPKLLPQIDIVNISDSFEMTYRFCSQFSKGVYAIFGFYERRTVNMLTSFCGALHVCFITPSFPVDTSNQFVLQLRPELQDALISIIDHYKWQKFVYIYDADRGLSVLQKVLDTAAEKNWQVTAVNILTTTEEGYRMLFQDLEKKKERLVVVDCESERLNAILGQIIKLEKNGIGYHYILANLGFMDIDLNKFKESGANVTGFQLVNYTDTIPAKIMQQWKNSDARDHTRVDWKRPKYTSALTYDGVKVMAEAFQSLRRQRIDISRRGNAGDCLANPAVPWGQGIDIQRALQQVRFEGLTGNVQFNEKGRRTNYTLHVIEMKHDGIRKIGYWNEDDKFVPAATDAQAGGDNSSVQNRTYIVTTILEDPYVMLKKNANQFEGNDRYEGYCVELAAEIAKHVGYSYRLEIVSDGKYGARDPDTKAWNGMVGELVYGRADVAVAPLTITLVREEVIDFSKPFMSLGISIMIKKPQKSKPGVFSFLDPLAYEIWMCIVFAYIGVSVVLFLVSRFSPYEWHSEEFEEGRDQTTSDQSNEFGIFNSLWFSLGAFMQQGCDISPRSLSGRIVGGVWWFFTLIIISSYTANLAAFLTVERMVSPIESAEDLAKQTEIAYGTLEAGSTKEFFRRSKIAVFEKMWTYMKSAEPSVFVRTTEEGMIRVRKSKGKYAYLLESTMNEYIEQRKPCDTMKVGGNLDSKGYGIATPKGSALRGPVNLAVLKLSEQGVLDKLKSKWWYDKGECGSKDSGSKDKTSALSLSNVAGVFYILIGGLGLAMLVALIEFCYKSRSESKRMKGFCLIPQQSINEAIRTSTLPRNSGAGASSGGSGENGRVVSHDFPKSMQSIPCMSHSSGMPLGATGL

SMILES: CCCCCCCCCC(=O)O [decanoic acid]
- IC50 (AMPA receptor GluA1): 2090 µM
- effect on epileptiform activity [1]: completely blocked
